Laboratory results: patent publication US7419780B2, “Methods and assays for screening protein targets” (The Trustees of Columbia University in the City of New York, priority 2000, dated 2008)

Experiments:
Assay type in all cases: cell-based, S. cerevisiae
Settings in all cases: 1 uM small molecule, difference to activity without small molecule, average of two trials
[1] = molecular target: T1, LexA (GSG)2eDHFR / B42 gly6rGR2 (UniProt P06536+P0ABQ4, C656G/F620S); experiment: β-galactosidase activity assay, strain V499Y
T1 construct: rat Glucocorticoid Receptor (aa 524-795) with point mutations; expressed in transfected cells; host or cells: S. cerevisiae FY250
T1 sequence (P0ABQ4 1-159): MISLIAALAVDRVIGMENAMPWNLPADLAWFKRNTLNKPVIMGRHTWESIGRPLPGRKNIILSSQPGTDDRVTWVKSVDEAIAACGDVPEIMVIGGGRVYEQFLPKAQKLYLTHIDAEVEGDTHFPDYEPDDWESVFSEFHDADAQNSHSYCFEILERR
T1 sequence (P06536 524-795 F620S/C656G limits assumed): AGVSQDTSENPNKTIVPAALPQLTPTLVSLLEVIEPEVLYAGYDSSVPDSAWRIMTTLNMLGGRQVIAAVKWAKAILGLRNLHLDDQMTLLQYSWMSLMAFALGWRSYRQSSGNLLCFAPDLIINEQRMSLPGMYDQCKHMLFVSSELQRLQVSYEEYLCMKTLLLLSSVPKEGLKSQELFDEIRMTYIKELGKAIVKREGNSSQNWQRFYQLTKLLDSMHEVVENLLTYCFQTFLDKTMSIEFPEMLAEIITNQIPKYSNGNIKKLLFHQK
From the text: (§1) Table III explains the components of each strain. Each strain was constructed from the parent yeast strain FY250 and also contains the pMW106 plasmid, which has the LacZ reporter gene that is turned on only in when the LexA DNA binding domain and the B42 activation are brought in tot he vicinity of each other. We use several different strains because we use DHFR from two different species, mDHFR is from murine, while eDHFR is from E. coli. We are asl oable to switch the small moleculebinding domains. For example, the strain containing LexA-eDHFR with B42-rGH2 is a different strain and behaves differently from the strain containing LexA-rGR2 with B42-eDHFR. We also put in short 6 amino acid linkers between the two domains of our protein chimeras and thus these are different strain as well.
(§2) The results in Table IV are averages of two separate trials. Each strain was examined with small molecules and without small molecules. The absolute activity is given as the β-galactisidase activity […]. The average β-galactosidse activity for a strain without small molecule (i.e. the negative control) was about 100 β-galactosidase units.

[2] = molecular target: T2, LexA rGR2 / B42 (GSG)2mDHFR (UniProt P00375+P06536, C656G/F620S); experiment: β-galactosidase activity assay, strain V511Y
T2 construct: expressed in transfected cells; host or cells: S. cerevisiae FY250 with pMW106 lacZ reporter
T2 sequence (P06536 524-795 F620S/C656G limits assumed): T1 sequence (P06536 524-795 F620S/C656G limits assumed)
T2 sequence (P00375 1-187): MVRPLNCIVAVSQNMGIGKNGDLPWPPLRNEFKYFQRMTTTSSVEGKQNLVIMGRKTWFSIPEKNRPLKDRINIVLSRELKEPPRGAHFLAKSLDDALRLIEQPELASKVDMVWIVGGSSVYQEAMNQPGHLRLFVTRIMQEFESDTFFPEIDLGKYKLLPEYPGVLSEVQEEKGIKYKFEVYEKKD
From the text: as §1, §2

[3] = molecular target: T3, LexA rGR2 / B42 (GSG)2eDHFR (UniProt P06536+P0ABQ4, C656G/F620S); experiment: β-galactosidase activity assay, strain V509Y
T3 construct: expressed in transfected cells; host or cells: S. cerevisiae FY250 with pMW106 lacZ reporter
T3 sequence (P06536 524-795 F620S/C656G limits assumed): T1 sequence (P06536 524-795 F620S/C656G limits assumed)
T3 sequence (P0ABQ4 1-159): T1 sequence (P0ABQ4 1-159)
From the text: as §1, §2

[4] = molecular target: T4, LexA (GSG)2mDHFR / B42 rGR2 (UniProt P00375+P06536, C656G/F620S); experiment: β-galactosidase activity assay, strain V502Y
T4 construct: rat Glucocorticoid Receptor (aa 524-795) with point mutations; expressed in transfected cells; host or cells: S. cerevisiae FY250
T4 sequence (P00375 1-187): T2 sequence (P00375 1-187)
T4 sequence (P06536 524-795 F620S/C656G limits assumed): T1 sequence (P06536 524-795 F620S/C656G limits assumed)
From the text: as §1, §2

[5] = molecular target: T5, LexA eDHFR / B42 (GSG)rGR2 (UniProt P06536+P0ABQ4, C656G/F620S); experiment: β-galactosidase activity assay, strain V494Y
T5 construct: rat Glucocorticoid Receptor (aa 524-795) with point mutations; expressed in transfected cells; host or cells: S. cerevisiae FY250
T5 sequence (P0ABQ4 1-159): T1 sequence (P0ABQ4 1-159)
T5 sequence (P06536 524-795 F620S/C656G limits assumed): T1 sequence (P06536 524-795 F620S/C656G limits assumed)
From the text: as §1, §2

[6] = molecular target: T6, LexA eDHFR / B42 rGR2 (UniProt P06536+P0ABQ4, C656G/F620S); experiment: β-galactosidase activity assay, strain V493Y
T6 construct: rat Glucocorticoid Receptor (aa 524-795) with point mutations; expressed in transfected cells; host or cells: S. cerevisiae FY250
T6 sequence (P0ABQ4 1-159): T1 sequence (P0ABQ4 1-159)
T6 sequence (P06536 524-795 F620S/C656G limits assumed): T1 sequence (P06536 524-795 F620S/C656G limits assumed)
From the text: as §1, §2

[7] = molecular target: T7, LexA (GSG)2rGR2 / B42 eDHFR (UniProt P06536+P0ABQ4, C656G/F620S); experiment: β-galactosidase activity assay, strain V506Y
T7 construct: expressed in transfected cells; host or cells: S. cerevisiae FY250 with pMW106 lacZ reporter
T7 sequence (P06536 524-795 F620S/C656G limits assumed): T1 sequence (P06536 524-795 F620S/C656G limits assumed)
T7 sequence (P0ABQ4 1-159): T1 sequence (P0ABQ4 1-159)
From the text: as §1, §2

[8] = molecular target: T8, LexA mDHFR / B42 rGR2 (UniProt P00375+P06536, C656G/F620S); experiment: β-galactosidase activity assay, strain V495Y
T8 construct: rat Glucocorticoid Receptor (aa 524-795) with point mutations; expressed in transfected cells; host or cells: S. cerevisiae FY250
T8 sequence (P00375 1-187): T2 sequence (P00375 1-187)
T8 sequence (P06536 524-795 F620S/C656G limits assumed): T1 sequence (P06536 524-795 F620S/C656G limits assumed)
From the text: as §1, §2

[9] = molecular target: T9, LexA (GSG)2mDHFR / B42 gly6rGR2 (UniProt P00375+P06536, C656G/F620S); experiment: β-galactosidase activity assay, strain V503Y
T9 construct: expressed in transfected cells; host or cells: S. cerevisiae FY250 with pMW106 lacZ reporter
T9 sequence (P00375 1-187): T2 sequence (P00375 1-187)
T9 sequence (P06536 524-795 F620S/C656G limits assumed): T1 sequence (P06536 524-795 F620S/C656G limits assumed)
From the text: as §1, §2

[10] = molecular target: T10, LexA (GSG)2rGR2 / B42 (GSG)2mDHFR (UniProt P00375+P06536, C656G/F620S); experiment: β-galactosidase activity assay, strain V512Y
T10 construct: rat Glucocorticoid Receptor (aa 524-795) with point mutations; expressed in transfected cells; host or cells: S. cerevisiae FY250
T10 sequence (P06536 524-795 F620S/C656G limits assumed): T1 sequence (P06536 524-795 F620S/C656G limits assumed)
T10 sequence (P00375 1-187): T2 sequence (P00375 1-187)
From the text: as §1, §2

C[C@@H]1C[C@H]2C3CCC4=CC(=O)C=C[C@]4(C)[C@@]3(F)[C@@H](O)C[C@]2(C)[C@@]1(O)C(=O)NCCSCCCCCCCCSCC[C@H](NC(=O)c1ccc(N(C)Cc2cnc3nc(N)nc(N)c3n2)cc1)C(=O)O (stereo partly shown) [D8M]
B-gal activity [1]: 7012 β-galactosidase units | B-gal activity [2]: −129 β-galactosidase units | B-gal activity [3]: 2734 β-galactosidase units | B-gal activity [4]: 30 β-galactosidase units | B-gal activity [5]: 10568 β-galactosidase units | B-gal activity [6]: 5555 β-galactosidase units | B-gal activity [7]: 3867 β-galactosidase units | B-gal activity [8]: 38 β-galactosidase units | B-gal activity [9]: 45 β-galactosidase units | B-gal activity [10]: −4 β-galactosidase units
